Reference: patent EP0414533A1, “Use of iodopropargyl esters of alpha-amino acid derivatives as antimicrobial agents” (ROHM AND HAAS COMPANY, priority 1989, dated 1991)
Converted amounts (≈) assume the structure as drawn. “And” between values parts separate entries of the source, which are not always exact repeats. Equal values may be shown once. Where a name gives a salt, the structure may show the parent alone. Read-outs that look alike come from different tables or passages of the source.

Assays:
Pythium ultimum (PYU) = experiment: In-vitro plant fungicide test; type: cell-based; settings: 25 ppm, Table IVa; for inhibition of growth at 25 ppm: Globisporangium ultimum, read-out: % Control at 25 ppm PYU
Septoria nodorum (SEP) = experiment: In-vitro plant fungicide test; type: cell-based; settings: 25 ppm, Table IVa; for inhibition of growth at 25 ppm: Parastagonospora nodorum, read-out: % Control at 25 ppm SEP
THREE FUNGI = experiment: MIC test against three fungi in Mycophile Broth, pH 5.0, read after 8 days (Table VII); type: cell-based; settings: for MIC: 192 h
[1] = system: Cochliobolus sativus (HEL); experiment: In-vitro plant fungicide test; type: cell-based; settings: 25 ppm, Table IVa, *=Phytotoxic; for inhibition of growth at 25 ppm: Bipolaris sorokiniana, read-out: % Control at 25 ppm HEL
[2] = system: Staphylococcus aureus (SAUR); experiment: Minimum inhibitory concentration (MIC), broth two-fold serial dilution test; settings: Table IIIa; for MIC (G+) SAUR: M9G (minimal salts media with glucose); for MIC: Staphylococcus aureus, read-out: MIC (G+) SAUR, M9G (minimal salts media with glucose)
Botrytis cinerea (BOC) = experiment: In-vitro plant fungicide test; type: cell-based; settings: 25 ppm, Table IVa, *=Phytotoxic; for inhibition of growth at 25 ppm: Botrytis cinerea, read-out: % Control at 25 ppm BOC
[3] = system: Xanthomonas campestris (XAN); experiment: In-vitro plant fungicide test; type: cell-based; settings: 25 ppm, Table IVa; for inhibition of growth at 25 ppm: Xanthomonas campestris, read-out: % Control at 25 ppm XAN
Fusarium roseum (FUS) = experiment: In-vitro plant fungicide test; type: cell-based; settings: Table IVa, *=Phytotoxic; for inhibition of growth at 25 ppm: Fusarium sambucinum, read-out: % Control at 25 ppm FUS, 25 ppm
Rhizoctonia solani (RHI) = experiment: In-vitro plant fungicide test; type: cell-based; settings: 25 ppm, Table IVa; for inhibition of growth at 25 ppm: Rhizoctonia solani, read-out: % Control at 25 ppm RHI
[4] = system: Phytophthora capsici (PHY); experiment: In-vitro plant fungicide test; type: cell-based; settings: 25 ppm, Table IVa; for inhibition of growth at 25 ppm: Phytophthora capsici, read-out: % Control at 25 ppm PHY
Piricularia oryzae (PIR) = experiment: microbe, parasite or virus in culture; type: cell-based; settings: for inhibition of growth at 25 ppm: read-out: % Control at 25 ppm PIR
[5] = system: Pseudomonas aerugenosa (PSAE); experiment: Minimum inhibitory concentration (MIC), broth two-fold serial dilution test; settings: Table IIIa; for MIC (G-) PSAE: M9G (minimal salts media with glucose); for MIC: Pseudomonas, read-out: MIC (G-) PSAE, M9G (minimal salts media with glucose)
Escherichia coli (ECOL) = experiment: as above; settings: for MIC: Escherichia coli, read-out: MIC (G-) ECOL, M9G (minimal salts media with glucose); for MIC (G-) ECOL: M9G (minimal salts media with glucose)
Aspergillus niger (ANIG) = experiment: as above; type: cell-based; settings: for MIC: Aspergillus niger
[6] = system: Aureobasidium pullulans (APUL); experiment: as above; type: cell-based; settings: for MIC: Aureobasidium pullulans
[7] = system: Pseudomonas fluorescens (PSFL); experiment: as above; settings: Table IIIa; for MIC (G-) PSFL: M9G (minimal salts media with glucose)
[8] = Aspergillus niger, serial dilutions from 50 ppm, read after 8 days of incubation
[9] = Aureobasidium pullulans, serial dilutions from 50 ppm, read after 8 days of incubation
[10] = Aspergillus niger, pH 5, read-out: MIC ANIG, Aspergillus niger, serial dilutions from 50 ppm, read after 8 days of incubation
[11] = Aureobasidium pullulans, pH 5, read-out: MIC APUL, Aureobasidium pullulans, serial dilutions from 50 ppm, read after 8 days of incubation
[12] = Gloeophyllum trabeum, pH 5, read-out: MIC GTRA, Gloeophyllum trabeum, serial dilutions from 50 ppm, read after 8 days of incubation
[13] = M9G (minimal salts media with glucose), Table IIIa, trifluoroacetate
[14] = M9G (minimal salts media with glucose), Table IIIa
[15] = Aspergillus niger, serial dilutions from 50 ppm, read after 8 days of incubation, read-out: MIC ANIG
[16] = Aureobasidium pullulans, serial dilutions from 50 ppm, read after 8 days of incubation, read-out: MIC APUL
[17] = Gloeophyllum trabeum, serial dilutions from 50 ppm, read after 8 days of incubation, read-out: MIC GTRA
[18] = M9G (minimal salts media with glucose), Table IIIc, iodopropargyl esters of peptides, read-out: MIC (F) APUL
[19] = Table IIIc, iodopropargyl esters of peptides
[20] = M9G (minimal salts media with glucose), Table IIIc, iodopropargyl esters of peptides

Row | SMILES | MIC (G+) SAUR [2] | inhibition of growth at 25 ppm (Pythium ultimum (PYU)) | inhibition of growth at 25 ppm (Septoria nodorum (SEP)) | MIC (THREE FUNGI; [10]) | MIC (THREE FUNGI; [11]) | MIC (THREE FUNGI; [12]) | inhibition of growth at 25 ppm [1] | inhibition of growth at 25 ppm (Botrytis cinerea (BOC)) | inhibition of growth at 25 ppm [3] | inhibition of growth at 25 ppm (Fusarium roseum (FUS)) | MIC (Escherichia coli (ECOL); Table IIIa) | MIC (G-) ECOL (Escherichia coli (ECOL); Table IIIa, trifluoroacetate) | inhibition of growth at 25 ppm (Rhizoctonia solani (RHI)) | inhibition of growth at 25 ppm (Piricularia oryzae (PIR)) | MIC (THREE FUNGI; [15]) | MIC (THREE FUNGI; [16]) | MIC (THREE FUNGI; [17]) | other results
1 | C#CCSC[C@H](NC(=O)OC(C)(C)C)C(=O)OCC#CI [Compound 6, N-t-butoxycarbonyl-S-propargyl-L-cysteine iodopropargyl ester] | >100 PPM and 64 PPM |  |  |  |  |  |  |  |  |  |  |  |  |  |  |  |  | % Control at 25 ppm PYU (Pythium ultimum (PYU)): 100%; % Control at 25 ppm SEP (Septoria nodorum (SEP)): 100%; MIC ANIG (THREE FUNGI; [8]): 12.5 ppm; MIC APUL (THREE FUNGI; [9]): 25 ppm; MIC GTRA (THREE FUNGI; Gloeophyllum trabeum, serial dilutions from 50 ppm, read after 8 days of incubation): 3.2 ppm; % Control at 25 ppm HEL [1]: 100%; % Control at 25 ppm BOC (Botrytis cinerea (BOC)): 0%; % Control at 25 ppm XAN [3]: 0%; % Control at 25 ppm FUS (Fusarium roseum (FUS); 25 ppm): 100%; % Control at 25 ppm RHI (Rhizoctonia solani (RHI)): 100%; % Control at 25 ppm PHY [4]: 100%; % Control at 25 ppm PIR (Piricularia oryzae (PIR)): 100%
2 | NCC(=O)OCC#CI [Compound 7, glycine iodopropargyl ester trifluoroacetate] |  | 100% | 100% | 25 µg/mL | 50 µg/mL | 12.5 µg/mL | 100% | 100% | 0% | 100% | 100 µg/mL | 64 PPM | 100% | 100% |  |  |  | MIC (G-) PSAE ([5]; trifluoroacetate): 125 PPM; MIC [5]: 100 µg/mL; inhibition of growth at 25 ppm [4]: 100%
3 | C[C@H](N)C(=O)OCC#CI [Compound 8, L-alanine iodopropargyl ester trifluoroacetate] |  | 100% | 100% | 12.5 µg/mL | 25 µg/mL | 12.5 µg/mL | 100% | 100% | 0% | 100% | 64 µg/mL | >100 PPM | 100% | 100% |  |  |  | MIC (F) ANIG (Aspergillus niger (ANIG); [13]): <4 PPM and 3 PPM; MIC (G-) PSAE ([5]; trifluoroacetate): >100 PPM; MIC [5]: 125 µg/mL; MIC (F) APUL [6, 13]: <4 PPM and 2 PPM; inhibition of growth at 25 ppm [4]: 100%
4 | C[C@H](N)C(=O)OCC#CI [Compound 22, L-alanine iodopropargyl ester] | 100 PPM |  |  |  |  |  |  |  |  |  |  |  |  |  |  |  |  | % Control at 25 ppm SEP (Septoria nodorum (SEP)): 100%; MIC ANIG (THREE FUNGI; [8]): 12.5 ppm; MIC APUL (THREE FUNGI; [9]): 50 ppm; MIC (F) ANIG (Aspergillus niger (ANIG); [14]): <0.8 PPM; MIC (G-) PSAE [5]: 100 PPM; MIC (G-) PSFL [7]: 100 PPM; MIC (F) APUL [6, 14]: <0.8 PPM; % Control at 25 ppm XAN [3]: 0%; MIC (G-) ECOL (Escherichia coli (ECOL); Table IIIa): 100 PPM; % Control at 25 ppm PIR (Piricularia oryzae (PIR)): 100%
5 | C[C@@H](NC(=O)OC(C)(C)C)C(=O)OCC#CI [Compound 23, N-t-butoxycarbonyl-D-alanine iodopropargyl ester] | 32 PPM | 100% | 100% |  |  |  | 100% | 100% | 0% | 100% |  |  | 100% | 100% | 6.2 µg/mL (≈ 17.6 µM) | 25 µg/mL (≈ 70.8 µM) | 1.6 µg/mL (≈ 4.53 µM) | MIC (Aspergillus niger (ANIG); M9G (minimal salts media with glucose), Table IIIa, read-out: MIC (F) ANIG): < 4 µg/mL; MIC [2]: 63 µg/mL; MIC ([6]; M9G (minimal salts media with glucose), Table IIIa, read-out: MIC (F) APUL): < 4 µg/mL
6 | C[C@@H](N)C(=O)OCC#CI [Compound 24, D-alanine iodopropargyl ester trifluoroacetate] |  | 100% | 100% | 12.5 µg/mL | 25 µg/mL | 12.5 µg/mL | 100% | 0% | 0% | 75% | 32 µg/mL | 63 PPM | 100% | 100% |  |  |  | MIC (Aspergillus niger (ANIG); read-out: MIC (F) ANIG, M9G (minimal salts media with glucose), Table IIIa): < 4 µg/mL; MIC (G-) PSFL ([7]; trifluoroacetate): 32 PPM; MIC ([7]; Pseudomonas fluorescens, read-out: MIC (G-) PSFL, M9G (minimal salts media with glucose)): 63 µg/mL; MIC (G+) SAUR ([2]; trifluoroacetate): 63 PPM; MIC [2]: 125 µg/mL; MIC ([6]; read-out: MIC (F) APUL, M9G (minimal salts media with glucose), Table IIIa): < 4 µg/mL
7 | C[C@@H](NC(=O)OC(C)(C)C)C(=O)N[C@H](C)C(=O)OCC#CI [Compound 25, N-t-butoxycarbonyl-D-alanyl-D-alanine iodopropargyl ester] |  |  |  |  |  |  |  |  |  |  |  |  |  |  | 50 µg/mL (≈ 118 µM) | > 50 µg/mL | 6.2 µg/mL (≈ 14.6 µM) | MIC (Aspergillus niger (ANIG); M9G (minimal salts media with glucose), Table IIIc, iodopropargyl esters of peptides, read-out: MIC (F) ANIG): < 4 µg/mL; MIC [6, 18]: < 4 µg/mL; MIC (Escherichia coli (ECOL); [19]): 63 µg/mL
8 | C[C@H](NC(=O)[C@@H](C)NC(=O)OC(C)(C)C)C(=O)OCC#CI [Compound 26, N-t-butoxycarbonyl-D-alanyl-L-alanine iodopropargyl ester] |  |  |  |  |  |  |  |  |  |  |  |  |  |  | 25 µg/mL (≈ 58.9 µM) | 50 µg/mL (≈ 118 µM) | 6.2 µg/mL (≈ 14.6 µM) | MIC (F) ANIG (Aspergillus niger (ANIG); [20]): <4 PPM; MIC [6, 18]: < 4 µg/mL; MIC (F) APUL [6, 20]: 8 PPM; MIC (Escherichia coli (ECOL); [19]): 63 µg/mL; MIC (G-) ECOL (Escherichia coli (ECOL); [19]): 32 PPM
